# Results as given in patent publication US10052320B2, “Substituted quinoxalines as FGFR kinase inhibitors” (ASTEX THERAPEUTICS LIMITED, priority 2011, dated 2018).
# Where two headings read alike, the source gives them in different places.
# Experiments:
# KDR (h) (VEGFR2) = KDR (h) (VEGFR2) (Homo sapiens, UniProt P35968); experiment: KDR (VEGFR2) (enzymatic assay), TR-FRET; type: biochemical
# Procedure: KDR (VEGFR2) (Enzymatic Assay)
# In a final reaction volume of 30 μL, KDR (h) (150 ng/ml) was incubated with 50 mM HEPES pH 7.5, 6 mM MnCl2, 1 mM DTT, 0.1 mM Na3VO4, 0.01% Triton-X-100, 500 nM Btn-Flt3 and 3 μM ATP in the presence of compound (1% DMSO final). After incubation for 120 minutes at room temperature the reaction was stopped with 2.27 nM EU-anti P-Tyr, 7 mM EDTA, 31.25 nM SA-XL-665 and 0.02% BSA which was present for 60 minutes at room temperature. Time-Resolved Fluorescence Resonance Energy Transfer (TR-FRET) signal (ex340 nm. Em 620 nm, em 655 nm) was measured afterwards and results are expressed in RFU (Relative Fluorescence Units).
# [1] = molecular target: Ba/F3-KDR-transfected cells (Homo sapiens, UniProt P35968); experiment: Ba/F3-KDR (minus IL3) cellular proliferation assay, Alamar Blue; type: cell-based
# Ba/F3-KDR-transfected cells, sequence (P35968 whole entry, change not shown): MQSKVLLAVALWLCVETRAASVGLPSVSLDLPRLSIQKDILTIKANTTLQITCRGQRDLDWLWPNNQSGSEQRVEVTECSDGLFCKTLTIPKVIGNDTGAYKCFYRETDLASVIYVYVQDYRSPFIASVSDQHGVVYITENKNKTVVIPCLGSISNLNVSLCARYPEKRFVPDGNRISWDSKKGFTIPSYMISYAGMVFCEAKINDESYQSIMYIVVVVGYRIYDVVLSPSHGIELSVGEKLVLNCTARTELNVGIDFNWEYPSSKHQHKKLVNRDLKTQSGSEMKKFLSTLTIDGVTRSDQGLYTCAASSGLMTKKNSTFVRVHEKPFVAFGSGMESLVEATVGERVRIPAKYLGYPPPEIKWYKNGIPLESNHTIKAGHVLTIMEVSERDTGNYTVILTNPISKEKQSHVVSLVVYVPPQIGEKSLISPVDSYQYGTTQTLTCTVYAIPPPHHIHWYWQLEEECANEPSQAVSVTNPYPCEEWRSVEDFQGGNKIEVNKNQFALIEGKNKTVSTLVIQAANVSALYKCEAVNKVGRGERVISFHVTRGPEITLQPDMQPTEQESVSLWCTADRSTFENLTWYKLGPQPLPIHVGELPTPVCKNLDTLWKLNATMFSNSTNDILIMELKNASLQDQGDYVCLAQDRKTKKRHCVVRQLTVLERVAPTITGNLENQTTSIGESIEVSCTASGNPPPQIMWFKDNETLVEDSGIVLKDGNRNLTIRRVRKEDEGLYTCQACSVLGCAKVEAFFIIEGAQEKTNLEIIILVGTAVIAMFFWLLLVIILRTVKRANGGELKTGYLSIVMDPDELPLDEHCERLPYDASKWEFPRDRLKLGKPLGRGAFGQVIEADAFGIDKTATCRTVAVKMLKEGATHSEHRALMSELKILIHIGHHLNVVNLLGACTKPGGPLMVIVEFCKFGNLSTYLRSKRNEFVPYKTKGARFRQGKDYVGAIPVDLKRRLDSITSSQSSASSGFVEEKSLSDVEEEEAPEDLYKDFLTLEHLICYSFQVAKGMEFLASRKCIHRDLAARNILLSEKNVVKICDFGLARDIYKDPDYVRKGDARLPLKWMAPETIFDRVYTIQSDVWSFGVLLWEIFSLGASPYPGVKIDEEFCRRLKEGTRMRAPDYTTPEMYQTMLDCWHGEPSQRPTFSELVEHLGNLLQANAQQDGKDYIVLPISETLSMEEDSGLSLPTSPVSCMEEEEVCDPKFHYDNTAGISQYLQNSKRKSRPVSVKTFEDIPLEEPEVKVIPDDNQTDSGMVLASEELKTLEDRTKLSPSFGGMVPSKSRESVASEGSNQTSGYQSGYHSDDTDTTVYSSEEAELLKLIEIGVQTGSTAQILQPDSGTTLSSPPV
# Procedure: Ba/F3-KDR (Minus IL3 or Plus IL3) (Cellular Proliferation Assay)
# (§1) In a 384 well plate, 100 nl of compound dilution in DMSO was sprayed before adding 50 μl cell culture medium (phenol red free RPMI-1640, 10% FBS, 2 mM L-Glutamine and 50 μg/ml Gentamycin) containing 20000 cells per well of Ba/F3-KDR-transfected cells. Cells were put in an incubator at 37° C. and 5% CO2. After 24 hours, 10 μl of Alamar Blue solution (0.5 mM K3Fe(CN)6, 0.5 mM KaFe(CN)6, 0.15 mM Resazurin and 100 mM Phosphate Buffer) was added to the wells, incubated for 4 hours at 37° C. and 5% CO2 before RFU's (Relative Fluorescence Units) (ex. 540 nm., em. 590 nm.) were measured in a flurorescence plate reader.
# (§2) As a counterscreen the same experiment was performed in the presence of 10 ng/ml murine IL3.
# as §1, with “a 96” for “a 384”, “plate, 180” for “plate, 100 nl of compound dilution in DMSO was sprayed before adding 50”, “containing 10000” for “containing 20000”, “Ba/F3-KDR-transfected cells were pipette and 20 μl of compound dilution in DMSO was added.” for “Ba/F3-KDR-transfected cells.”, “hours, 40” for “hours, 10”, “CO2” for “CO2 before”
# [2] = tested on: Ba/F3-Flt3-transfected cells in the presence of 10 ng/ml murine IL3; experiment: Ba/F3-Flt3 (plus IL3) cellular proliferation counterscreen, Alamar Blue; type: cell-based; conditions: Mus musculus, read-out: BAF3-FLT3 (PLUS IL3) 96 well pIC50 (converted)
# [3] = molecular target: T1, Ba/F3-Flt3-transfected cells (Homo sapiens, UniProt P36888, cells depend on it, form not given); experiment: Ba/F3-Flt3 (minus IL3) cellular proliferation assay, Alamar Blue; type: cell-based
# T1 sequence (P36888 1-993): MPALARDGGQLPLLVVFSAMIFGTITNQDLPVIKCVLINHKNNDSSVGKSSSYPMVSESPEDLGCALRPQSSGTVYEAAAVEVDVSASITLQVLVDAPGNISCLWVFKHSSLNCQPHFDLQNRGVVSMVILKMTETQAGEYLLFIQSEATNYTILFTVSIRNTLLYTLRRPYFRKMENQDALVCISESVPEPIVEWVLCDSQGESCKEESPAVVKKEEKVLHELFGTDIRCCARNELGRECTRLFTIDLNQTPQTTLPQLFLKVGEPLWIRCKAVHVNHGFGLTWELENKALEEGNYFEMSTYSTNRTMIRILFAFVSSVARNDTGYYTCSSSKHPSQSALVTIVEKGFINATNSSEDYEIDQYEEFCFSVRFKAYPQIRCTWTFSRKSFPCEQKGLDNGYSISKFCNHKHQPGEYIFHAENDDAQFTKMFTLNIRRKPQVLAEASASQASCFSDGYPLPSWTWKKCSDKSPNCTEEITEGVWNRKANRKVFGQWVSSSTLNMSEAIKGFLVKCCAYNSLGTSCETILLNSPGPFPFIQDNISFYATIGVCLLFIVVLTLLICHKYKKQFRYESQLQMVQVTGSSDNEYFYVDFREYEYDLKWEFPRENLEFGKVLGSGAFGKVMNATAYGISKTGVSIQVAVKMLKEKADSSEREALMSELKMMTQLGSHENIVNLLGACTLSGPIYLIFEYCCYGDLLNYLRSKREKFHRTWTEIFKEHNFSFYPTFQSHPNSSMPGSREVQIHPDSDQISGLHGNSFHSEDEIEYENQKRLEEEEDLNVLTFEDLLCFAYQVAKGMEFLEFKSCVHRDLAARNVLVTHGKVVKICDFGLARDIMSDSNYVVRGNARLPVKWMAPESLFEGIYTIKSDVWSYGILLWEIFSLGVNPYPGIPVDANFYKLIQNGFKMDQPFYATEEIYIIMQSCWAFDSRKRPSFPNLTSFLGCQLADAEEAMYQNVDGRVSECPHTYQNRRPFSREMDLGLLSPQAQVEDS
# Procedure: (§3) Ba/F3-Flt3 (Minus IL3 or Plus IL3) (Cellular Proliferation Assay)
# Cells were put in an incubator at 37° C. and 5% CO2. After 24 hours, 10 μl of Alamar Blue solution (0.5 mM K3Fe(CN)6, 0.5 mM KaFe(CN)6, 0.15 mM Resazurin and 100 mM Phosphate Buffer) was added to the wells, incubated for 4 hours at 37° C. and 5% CO2 before RFU's (Relative Fluorescence Units) (ex. 540 nm., em. 590 nm.) were measured in a flurorescence plate reader. […]
# as §1, with “a 96” for “a 384”, “plate, 180” for “plate, 100 nl of compound dilution in DMSO was sprayed before adding 50”, “containing 10000” for “containing 20000”, “of Ba/F3-Flt3-transfected cells were pipette and 20 μl of compound dilution in DMSO was added.” for “of Ba/F3-KDR-transfected cells.”, “hours, 40” for “hours, 10”
# [4] = tested on: Ba/F3-Flt3-transfected cells in the presence of 10 ng/ml murine IL3; experiment: Ba/F3-Flt3 (plus IL3) cellular proliferation counterscreen, Alamar Blue; type: cell-based; conditions: Mus musculus; plus 10 ng/ml murine IL3; read-out: BAF3-FLT3 (PLUS IL3) 384 well pIC50 (converted)
# Procedure: as §3
# as §1, with “Ba/F3-Flt3-transfected” for “Ba/F3-KDR-transfected”
# as §2
# as §1, with “a 96” for “a 384”, “plate, 180” for “plate, 100 nl of compound dilution in DMSO was sprayed before adding 50”, “containing 10000” for “containing 20000”, “of Ba/F3-Flt3-transfected cells were pipette and 20 μl of compound dilution in DMSO was added.” for “of Ba/F3-KDR-transfected cells.”, “hours, 40” for “hours, 10”
# [5] = tested on: Ba/F3-FGFR1-transfected cells in the presence of 10 ng/ml murine IL3; experiment: Ba/F3-FGFR1 (plus IL3) cellular proliferation counterscreen, Alamar Blue; type: cell-based; conditions: Mus musculus; plus IL3, 384 well; read-out: BAF3-FGFR 1 (PLUS IL3) 384 well pIC50 (converted)
# Procedure: Ba/F3-FGFR1 (Minus IL3 or Plus IL3) (Cellular Proliferation Assay)
# as §1, with “Ba/F3-FGFR1-transfected” for “Ba/F3-KDR-transfected”
# as §2
# as §1, with “a 96” for “a 384”, “plate, 180” for “plate, 100 nl of compound dilution in DMSO was sprayed before adding 50”, “containing 10000” for “containing 20000”, “of Ba/F3-FGFR1-transfected cells were pipette and 20 μl of compound dilution in DMSO was added.” for “of Ba/F3-KDR-transfected cells.”, “hours, 40” for “hours, 10”
# KDR (h) (VEGFR2), sequence (P35968 20-1356): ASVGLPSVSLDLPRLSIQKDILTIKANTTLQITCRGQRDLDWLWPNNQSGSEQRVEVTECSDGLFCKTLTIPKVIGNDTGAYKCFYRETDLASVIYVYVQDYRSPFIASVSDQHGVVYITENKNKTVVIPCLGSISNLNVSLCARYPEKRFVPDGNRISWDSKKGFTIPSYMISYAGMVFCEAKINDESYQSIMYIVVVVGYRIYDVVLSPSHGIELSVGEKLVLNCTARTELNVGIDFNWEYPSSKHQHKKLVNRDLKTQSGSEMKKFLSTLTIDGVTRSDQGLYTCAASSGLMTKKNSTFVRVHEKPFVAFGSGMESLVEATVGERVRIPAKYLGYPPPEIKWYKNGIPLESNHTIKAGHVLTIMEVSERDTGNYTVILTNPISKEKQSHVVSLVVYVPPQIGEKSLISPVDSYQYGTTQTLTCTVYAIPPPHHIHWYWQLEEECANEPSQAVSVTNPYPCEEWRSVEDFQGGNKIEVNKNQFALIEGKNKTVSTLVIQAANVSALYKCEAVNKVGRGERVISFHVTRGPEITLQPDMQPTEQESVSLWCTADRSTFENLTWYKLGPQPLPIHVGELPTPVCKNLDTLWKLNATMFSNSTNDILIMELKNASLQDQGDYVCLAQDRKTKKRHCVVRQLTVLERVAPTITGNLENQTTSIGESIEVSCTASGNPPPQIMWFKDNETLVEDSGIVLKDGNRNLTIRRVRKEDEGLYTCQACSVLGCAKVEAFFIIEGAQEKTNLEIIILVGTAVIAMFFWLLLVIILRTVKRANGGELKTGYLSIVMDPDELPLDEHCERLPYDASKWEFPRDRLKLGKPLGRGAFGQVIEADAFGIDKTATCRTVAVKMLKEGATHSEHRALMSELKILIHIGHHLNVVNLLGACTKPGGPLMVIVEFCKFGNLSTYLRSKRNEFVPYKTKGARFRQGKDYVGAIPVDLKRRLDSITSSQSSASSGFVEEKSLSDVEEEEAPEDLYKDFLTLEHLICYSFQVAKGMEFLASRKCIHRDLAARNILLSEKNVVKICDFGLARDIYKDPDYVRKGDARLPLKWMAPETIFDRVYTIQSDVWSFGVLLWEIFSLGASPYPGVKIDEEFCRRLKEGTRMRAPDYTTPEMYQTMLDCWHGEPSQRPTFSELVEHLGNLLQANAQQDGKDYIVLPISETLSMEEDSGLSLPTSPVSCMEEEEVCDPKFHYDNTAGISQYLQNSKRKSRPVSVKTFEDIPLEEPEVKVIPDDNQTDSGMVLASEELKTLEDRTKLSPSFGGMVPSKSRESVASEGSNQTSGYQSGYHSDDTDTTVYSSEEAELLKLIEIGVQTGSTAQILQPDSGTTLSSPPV
Compound,IC50 (KDR (h) (VEGFR2)) [µM],"BAF3-KDR (MIN IL3) 384 well pIC50 ([1]; minus IL3, 384 well)","IC50 ([2]; plus IL3, 96 well) [µM]",melting point [°C],"BAF3-FLT3 (MIN IL3) 96 well pIC50 ([3]; minus IL3, 96 well)","BAF3-FLT3 (MIN IL3) 384 well pIC50 ([3]; minus IL3, 384 well)",BAF3-KDR (MIN IL3) 384 well pIC50 ([1]; minus IL3),IC50 [4] [µM],IC50 [5] [µM],BAF3-KDR (MIN IL3) 96 well pIC50 ([1]; minus IL3),IC50 ([2]; plus 10 ng/ml murine IL3) [µM],BAF3-FLT3 (MIN IL3) 96 well pIC50 ([3]; minus IL3),BAF3-FLT3 (MIN IL3) 384 well pIC50 ([3]; minus IL3)
COc1cc(OC)cc(N(CC2CC2)c2ccc3ncc(-c4ccc(OC)nc4)nc3c2)c1 [Compound 91],> 10,<5,> 10,116,<5,<5,–,–,–,–,–,–,–
COc1cc(OC)cc(N(CC2CC2)c2ccc3ncc(-c4ccncc4)nc3c2)c1 [Compound 89],1.91,<5,> 10,105,<5,<5,–,–,–,–,–,–,–
COc1cc(OC)cc(N(CCCO)c2ccc3ncc(-c4cnc(OC)nc4)nc3c2)c1 [Compound 141],> 1,–,–,–,–,–,<5,> 10,> 10,–,–,–,–
COc1cc(OC)cc(N(CC2CC2)c2ccc3ncc(-c4ccc(N)nc4)nc3c2)c1 [Compound 94],2.14,–,–,185,–,–,<5,–,–,<5,> 10,<5,<5
